In patent publication US20020142347A1, “Biosensor” (BIOSENSOR ApS, priority 2000, published 2002):

Target: T1, FACI-24 (Bos taurus, UniProt P07107, M25C)
T1 construct: made in house; host or cells: E. coli BL21(DE3)pLysS, pET3a vector
T1 sequence (P07107 2-87 M25C): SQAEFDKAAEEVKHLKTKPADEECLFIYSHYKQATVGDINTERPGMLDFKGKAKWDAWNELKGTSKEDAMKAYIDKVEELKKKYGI
Test: Fluorescence titration equilibrium binding analysis of CoA and acyl-CoA esters to FACI-24
Design: species or system bovine
Settings: FACI-24 (1.5 μM) titrated with increasing CoA and acyl-CoA concentration; fitted binding curves, emission 460 nm; read-out: Kd (nM) ± S.E.
Protocol: Development of a mathematical expression describing the relationship between acyl-CoA concentration and FACI-24 fluorescence was performed essentially as by Richieri et al 1992, J Biol Chem, 267:23495-23501. However, where ligand binding to ADIFAB induces both a fluorescence intensity increase around 505 nm and a fluorescence intensity decrease around 432 nm, ligand binding to FACI-24 only causes an increase in fluorescence around 460 nm.
Derivatisation of an expression for the fluorescence value as a function of the acyl-coA concentration was done using the Scatchard equation as a starting point: [formula]
which has been used to fit the titration data.
The curves represent the best fit analysis from two independent experiment calculated and normalized as described above. The FACI-24 binding affinity increases dramatically when the acyl-chain length increases from C8 to C10 and C12, a smaller but significant drop in Kd is seen by increasing chain length from C12 to C14. C14 to C18 saturated acyl-CoA esters and C18:1-CoA binds with similar and very high affinities to FACI-24. In >0.1 M salt, FACI-24 binds acyl-CoAs with higher affinity and similar specificity as native unmodified bovine ACBP. The Kd for binding of C12-CoA and C16-CoA to native ACBP is 40 and 2.0 nM, respectively (Fulcery et al Biochemical, 1997, 325:423-428; Færgeman et al 1996, Biochemistry, 35:14118-14126). FACI-24 is highly specific for binding long-chain acyl-CoA esters.
Titration of FACI with acyl-CoAs was done using a SPEX FLOUROLOG (Industries Inc, Edison N.J., USA) with excitation at 387 nm and emission at 460 nm, with both excitation and emission slits set to 4.5 nm. FACI (0.5-4.5 uM, as indicated) was dissolved in 1.5 ml binding buffer (10 mM HEPES 150 mM NaCl, 5 mM KCl, 1 mM Na2HPO4, pH 7.4) and titrated with a 10 μM acyl-CoA dissolved in binding buffer, with or without FACI added, as indicated. Fluorescence emission values (counts per second) measured without FACI added to the ligand stock solution were corrected for titrand dilution.
Up to four parameters were fitted in this way, these were B, representing the point of saturation on the X axis, H, representing the maximum fluorescence, i.e. the fluorescence at saturating concentration of acyl-CoA, L, the minimum fluorescence value, i.e. the fluorescence of FACI-24 alone in buffer, and K, the Kd value lor the acyl-CoA in question. Initial estimates for the fittable parameters were typically: B=1, H=maximum fluorescence value measured, L=minimum fluorescence value measured (at acyl-CoA-concentration=0), and K as judged from the raw data, typically from 0.0001 uM to 0.1 uM for acyl-CoA longer than C10:0-CoA.
For each acyl-CoA at least two titrations and fittings were performed. To consider two or more titrations of the same acyl-CoA together and obtain a Kd value using all these titrations, both axes of the raw data were standardised using the fitted values of B, H and L in this way:
X axis standard=(raw X axis values)/Bfitted
Y axis standard=[(raw Y axis values)−Lfitted]/[Hfitted−Lfitted]
In this way all Y axis values should come to lie between 0 and 1 and the X axis value should be 1 at the point of saturation (FACI-24:acyl-CoA 1:1). Such adjusted data were pooled and fitted using DataFit. Typically, both H and B fitted to values close to 1 and L fitted to values close to 0. K was typically fitted to values somewhere between the two values obtained for the raw data.
This could be overcome by removing B from the fittable parameters list and instead setting it to a constant value of 1 and fitting again. This was typically done for both the raw and the standardised data.

CCCCCCCCCCCCCCCC(=O)SCCNC(=O)CCNC(=O)[C@H](O)C(C)(C)COP(=O)(O)OP(=O)(O)OC[C@H]1O[C@@H](n2cnc3c(N)ncnc32)[C@H](O)[C@@H]1OP(=O)(O)O [C16:0-CoA, palmitoyl-CoA]
Kd: 0.65 ± 0.26 nM
